Patent publication US8871280B1, “Compositions and methods for treating fungal activity in plants or soil” (The United States of America, as represented by the …, priority 2011, dated 2014)

Key:
cucumber seeds = test: Greenhouse assay of seed germination and phytotoxicity, soil treated with plant extract alone; conditions: for Avg. seed germination (+ PE only) / % Seed germination (+ PE only): cucumber, soil amended with 0.3% PE, no pathogen; for Avg. seed germination (+ PE only): 12 seeds sown per pot
Method: Soil treatment: For each treatment, 300 g of dry greenhouse soli (Pro-mix, Premier Horticulture LTD, Red Hill, Pa.) was thoroughly mixed with Rhizoctonia inoculum and incubated for 15 days as described above. […] The infested soil treated with only the carrier solution served as an untreated control. Following the treatment, the soil was thoroughly stirred to mix the contents and incubated in a double polythene bag closed tightly in the dark at room temperature for four days for fumigation to occur. Following the incubation, the bag was opened to allow as much PE to dissipate as possible. This was done by sprinkling the surface soil with sterile water every other day, and stirring the soil once every day for seven days. For assay of effect on seed germination and phytotoxicity of the plant extracts, soil was treated with plant extract formulations alone.
Greenhouse studies: Treated soil from each treatment was distributed to 4-inch plastic pots into which 12 seeds of cucumbers (95-100% germination) were sown and lightly watered to keep soil moist. The treatments were color coded and pots were randomized across treatment. All plants were kept in a greenhouse between 20° C. (night) to 26° C. (day) with 14 h of light. There were three pots per treatment in each experiment, and the experiment was repeated three times. As positive control, a broad spectrum popular soil fungicide Banrot® 40 WP (The Scotts Company, Ohio) was used following manufacturer's recommendation to control the disease. Total number of seedlings without any sign of damping off in each pot was recorded and percentage of disease suppression were calculated four weeks after sowing cucumber seeds.

Rhizoctonia solani [1] = test: Filter disk fumigation method, mycelial growth inhibition on PDA; type: cell-based, Rhizoctonia solani AG-4, isolate Rs 23A; conditions: for Fumig1 % inhibition: fumigation experiment 1; for Fumig2 % inhibition: fumigation experiment 2
Method: (§1) Fungal isolate and preparation of inoculum: Rhizoctonia solani AG-4, isolate Rs 23A is a highly virulent pathogenic isolate which infects many vegetables, ornamentals and turfgrasses (Lewis, J. A., and G. C. Papavizas, Soil Biology and Biochemistry, 9:195-201 (1987)). The fungus was grown in potato dextrose agar (PDA) plates and fungal plugs from the freshly growing mycelium were mixed with moist sterilized cracked wheat in a 2 L flask for 15 days in dark at 22° C. (Lakshman, D. K., et al., Proceedings of the National Academy of Science, USA, 95: 6425-6429 (1998)). The infested wheat was air dried in a sterile hood for 3 days, blended in a homogenizer and sieved through a mesh and stored at 2° C. before soil inoculation. A dose response of the inocula was carried out by thoroughly mixing using 0.25, 0.5, 0.75, 1.0, 1.25 and 1.50 g inoculums per Kg dry weight potting soil plus sterile water to maintain 25-30% moisture and incubating at room temperature for two weeks before sowing cucumber (cv muncher) seeds with the infested soil. The percent germination and post-emergence damping off of cucumber seedlings were recorded. The lowest inoculums dose that induced 100% postemergence damping off was estimated to be 1 to 1.25 g/Kg soil for inocula prepared over the span of the experiments. For soil fumigation with plant extracts (PEs), each time the minimum inoculum dose giving rise to 100% damping off was used.
In the second protocol, the chemical was kept not in direct contact with the fungus and we hypothesized that the plant extract will most likely influence the growth of the pathogen by fumigation action. In this approach, three sterile 15 mm filter paper (Whatman International Ltd, Maidstone, UK) disks were placed on the edge of each of three plates on the PDA. Each disk was impregnated in the center with various amounts (5-50 ul/disk) of the test solution/suspension. For negative control, only soybean oil was placed in the filter disk. […] The average radial growth was calculated and the experiment was repeated one more time. Percent growth inhibition was calculated as reported for poison bed assay.

Rhizoctonia solani [2] = test: Poison food technique (contact action), mycelial growth inhibition in PDA; type: cell-based, Rhizoctonia solani AG-4, isolate Rs 23A; conditions: for PoisonB1 % inhibition: poison bed experiment 1; for PoisonB2 % inhibition: poison bed experiment 2
Method: as §1
In vitro bioassays: Two in vitro bioassay methods were used to investigate the mycelial growth inhibitory potentials of PEs. In the poison food technique, test chemical/plant extract was mixed at concentrations of 15, 30, 45, 60, 75, and 150 μl per 20 ml autoclaved PDA at 50° C., poured on three sterile disposable plastic plates (100×15 mm, Fisherbrand) at 20 ml/plate and cooled to room temperature to solidify (Dhingra, O.D., and J. B. Sinclair, 1995, Basic Plant Pathology Methods, 2nd Edition, Lewis Publishers, Boca Raton and London). […] Each plate was seeded in the center with a 5 mm diameter agar disk of the freshly grown Rhizoctonia pathogen, mycelial side facing the medium, and sealed with stretched Parafilm® M (Fisher Scientific). The plates were incubated in the dark at room temperature and when the pathogen reached to the edge of the plates in the control treatment (soybean oil), radial measurement of fungal growth in plates treated with PEs were recorded by taking three measurements from each plate. The experiment was repeated one more time. The percent mycelial growth inhibition (MGI) due to PE was calculated using the following formula: […] where dc=Avg. radial growth in mm of pathogen in control plate; dt=avg. radial growth in mm of pathogen in treated plate.

Rhizoctonia solani [3] = test: Fungicidal vs fungistatic potential (regrowth of mycelial plugs on fresh PDA, 7 days); type: cell-based, Rhizoctonia solani AG-4, isolate Rs 23A; conditions: fumigation
Method: The fungicidal and fungistatic potential of the PEs were determined by the method described by Garber and Houstan (Garber R. H., and B. R. Houston, Phytopathology, 49: 449-450 (1959)). In brief, three 5 mm diameter plugs were taken from the peripheral mycelial growth from each plate and placed in a fresh PDA plate. Following incubation at room temperature for 7 days, observations were recorded for new mycelial growth (fungistatic) or no mycelial growth (fungicidal). As control, peripheral mycelial plugs from soybean oil amended PDA plates were checked for fresh mycelial growth in fresh PDA plates.

Rhizoctonia solani [4] = test: Greenhouse suppression of damping off of cucumber seedlings in R. solani infested soil amended with plant extract; type: in vivo, Rhizoctonia solani AG-4, isolate Rs 23A; conditions: cucumber damping off, soil amendment at 0.3% (v/w), four weeks after sowing

| Structure (SMILES) | Avg. seed germination (+ PE only) (cucumber seeds) | % Seed germination (+ PE only) (cucumber seeds) [%] | Fumig1 % inhibition (Rhizoctonia solani [1]; amount oil 15 μL/20 mL plate) [%] | Fumig2 % inhibition (Rhizoctonia solani [1]; amount oil 15 μL/20 mL plate) [%] | Fumig1 % inhibition (Rhizoctonia solani [1]; amount oil 30 μL/20 mL plate) [%] | Fumig2 % inhibition (Rhizoctonia solani [1]; amount oil 30 μL/20 mL plate) [%] | Fumig1 % inhibition (Rhizoctonia solani [1]; amount oil 45 μL/20 mL plate) [%] | Fumig2 % inhibition (Rhizoctonia solani [1]; amount oil 45 μL/20 mL plate) [%] | Fumig1 % inhibition (Rhizoctonia solani [1]; amount oil 60 μL/20 mL plate) [%] | Fumig2 % inhibition (Rhizoctonia solani [1]; amount oil 60 μL/20 mL plate) [%] | Fumig1 % inhibition (Rhizoctonia solani [1]; amount oil 75 μL/20 mL plate) [%] | Fumig2 % inhibition (Rhizoctonia solani [1]; amount oil 75 μL/20 mL plate) [%] | Fumig1 % inhibition (Rhizoctonia solani [1]; amount oil 150 μL/20 mL plate) [%] | Fumig2 % inhibition (Rhizoctonia solani [1]; amount oil 150 μL/20 mL plate) [%] | PoisonB1 % inhibition (Rhizoctonia solani [2]; amount oil 15 μL/20 mL plate) [%] | PoisonB2 % inhibition (Rhizoctonia solani [2]; amount oil 15 μL/20 mL plate) [%] | PoisonB1 % inhibition (Rhizoctonia solani [2]; amount oil 30 μL/20 mL plate) [%] | PoisonB2 % inhibition (Rhizoctonia solani [2]; amount oil 30 μL/20 mL plate) [%] | PoisonB1 % inhibition (Rhizoctonia solani [2]; amount oil 45 μL/20 mL plate) [%] | PoisonB2 % inhibition (Rhizoctonia solani [2]; amount oil 45 μL/20 mL plate) [%] | other results |
| --- | --- | --- | --- | --- | --- | --- | --- | --- | --- | --- | --- | --- | --- | --- | --- | --- | --- | --- | --- | --- | --- |
| Cc1ccc(C(C)C)cc1O [Carvacrol] | 4.00 | 33.33 | 88 | 87 | 94 | 91 | 100 | 91 | 100 | 93 | 99 | 96 | 100 | 100 | 100 | 100 | 100 | 100 | 100 | 100 | Phytotoxicity (cucumber seed germination and seedling growth), in words (cucumber seeds; greenhouse, soil amendment): slightly inhibited; PoisonB1 % inhibition (Rhizoctonia solani [2]; amount oil 60 μL/20 mL plate): 100%; PoisonB2 % inhibition (Rhizoctonia solani [2]; amount oil 60 μL/20 mL plate): 100%; PoisonB1 % inhibition (Rhizoctonia solani [2]; amount oil 75 μL/20 mL plate): 100%; PoisonB2 % inhibition (Rhizoctonia solani [2]; amount oil 75 μL/20 mL plate): 100%; PoisonB1 % inhibition (Rhizoctonia solani [2]; amount oil 150 μL/20 mL plate): 100%; PoisonB2 % inhibition (Rhizoctonia solani [2]; amount oil 150 μL/20 mL plate): 100%; Effect (fumigation) (Rhizoctonia solani [3]; amount oil 15 μL/20 mL plate): S; Effect (fumigation) (Rhizoctonia solani [3]; amount oil 30 μL/20 mL plate): S; Effect (fumigation) (Rhizoctonia solani [3]; amount oil 45 μL/20 mL plate): S; Effect (fumigation) (Rhizoctonia solani [3]; amount oil 60 μL/20 mL plate): S; Effect (fumigation) (Rhizoctonia solani [3]; amount oil 75 μL/20 mL plate): S; Effect (fumigation) (Rhizoctonia solani [3]; amount oil 150 μL/20 mL plate): S; % Disease suppression (+ PE + R. solani) (Rhizoctonia solani [4]): 47.25% |
| CC(C)=CCC/C(C)=C/CO [Geraniol] | 11.33 | 94.41 | 51 | 15 | 56 | 34 | 62 | 31 | 66 | 54 | 73 | 67 | 77 | 61 | 100 | 100 | 100 | 100 | 100 | 100 | PoisonB1 % inhibition (Rhizoctonia solani [2]; amount oil 60 μL/20 mL plate): 100%; PoisonB2 % inhibition (Rhizoctonia solani [2]; amount oil 60 μL/20 mL plate): 100%; PoisonB1 % inhibition (Rhizoctonia solani [2]; amount oil 75 μL/20 mL plate): 100%; PoisonB2 % inhibition (Rhizoctonia solani [2]; amount oil 75 μL/20 mL plate): 100%; PoisonB1 % inhibition (Rhizoctonia solani [2]; amount oil 150 μL/20 mL plate): 100%; PoisonB2 % inhibition (Rhizoctonia solani [2]; amount oil 150 μL/20 mL plate): 100%; Effect (fumigation) (Rhizoctonia solani [3]; amount oil 15 μL/20 mL plate): S; Effect (fumigation) (Rhizoctonia solani [3]; amount oil 30 μL/20 mL plate): S; Effect (fumigation) (Rhizoctonia solani [3]; amount oil 45 μL/20 mL plate): S; Effect (fumigation) (Rhizoctonia solani [3]; amount oil 60 μL/20 mL plate): S; Effect (fumigation) (Rhizoctonia solani [3]; amount oil 75 μL/20 mL plate): S; Effect (fumigation) (Rhizoctonia solani [3]; amount oil 150 μL/20 mL plate): S; % Disease suppression (+ PE + R. solani) (Rhizoctonia solani [4]): 77.75% |
